Source: BindingDB's records for doi:10.1021/acs.jmedchem.6b00608 (Chinese Academy of Sciences, 2016)

Molecular target: T1, Tyrosine-protein kinase receptor UFO (Homo sapiens, UniProt P30530)
T1 sequence (P30530 whole entry): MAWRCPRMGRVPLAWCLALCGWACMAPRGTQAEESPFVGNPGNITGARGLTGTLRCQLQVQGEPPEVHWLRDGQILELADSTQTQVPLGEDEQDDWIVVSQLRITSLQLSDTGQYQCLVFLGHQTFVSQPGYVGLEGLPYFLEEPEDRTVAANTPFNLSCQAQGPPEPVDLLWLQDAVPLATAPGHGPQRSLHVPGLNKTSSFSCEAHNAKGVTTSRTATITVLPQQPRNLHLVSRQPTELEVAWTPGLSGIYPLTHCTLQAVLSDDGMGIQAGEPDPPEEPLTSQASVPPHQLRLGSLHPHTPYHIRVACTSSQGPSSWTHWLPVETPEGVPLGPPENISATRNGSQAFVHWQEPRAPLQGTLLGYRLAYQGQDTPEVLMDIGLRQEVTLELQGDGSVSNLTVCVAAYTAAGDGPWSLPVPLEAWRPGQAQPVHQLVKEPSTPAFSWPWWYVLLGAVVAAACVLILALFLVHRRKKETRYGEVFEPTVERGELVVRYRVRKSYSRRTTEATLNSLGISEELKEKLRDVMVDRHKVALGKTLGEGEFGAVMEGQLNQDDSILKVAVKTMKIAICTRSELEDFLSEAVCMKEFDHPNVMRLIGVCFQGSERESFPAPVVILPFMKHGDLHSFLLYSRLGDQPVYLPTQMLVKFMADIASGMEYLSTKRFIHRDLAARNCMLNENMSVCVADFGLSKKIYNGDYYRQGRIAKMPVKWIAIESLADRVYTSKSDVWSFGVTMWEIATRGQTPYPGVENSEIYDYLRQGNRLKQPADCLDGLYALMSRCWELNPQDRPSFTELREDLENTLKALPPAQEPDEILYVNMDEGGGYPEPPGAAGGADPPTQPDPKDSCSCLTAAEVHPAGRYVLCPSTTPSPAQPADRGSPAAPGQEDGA
Assay: Inhibition of human recombinant AXL incubated for 1 to 1.5 hrs by FRET based Z'-Lyte kinase assay

IC50 | SMILES
> 10 µM | Cc1c(C(=O)Nc2ccc(Oc3ncnc4[nH]cc(-c5ccccc5)c34)c(F)c2)c(=O)c2cc(F)ccc2n1C
> 10 µM | Cc1c(C(=O)Nc2ccc(Oc3ncnc4[nH]cc(-c5ccccc5)c34)c(F)c2)c(=O)c2cc3ccccc3cc2n1C
> 10 µM | Cc1c(C(=O)Nc2ccc(Oc3ncnc4[nH]cc(-c5ccccc5)c34)c(F)c2)c(=O)c2cc(-c3ccccc3)ccc2n1C
